Reference: PMC4987650, “Structural Investigation of Park’s Nucleotide on Bacterial Translocase MraY: Discovery of Unexpected MraY Inhibitors” (Scientific Reports, 2016)
“Also recorded” adds a separate entry of the source. Like-named read-outs stand apart in the source and are kept apart here. Numbered stars: 1 amine (or outer) side, 2 acyl side, 3 side chain; on linkers, the order of the positions; unused ones are H or OH. Square brackets hold non-standard residues; d marks the D form. Peptide text beside a SMILES is read from it. * marks the point of attachment. UDPMurNAc = CC(=O)N[C@H]1[C@@H](OP(=O)(O)OP(=O)(O)OC[C@H]2O[C@@H](n3ccc(=O)[nH]c3=O)[C@H](O)[C@@H]2O)O[C@H](CO)[C@@H](O)[C@@H]1O[C@H](C)C(=O)*; d(γGlu) = O=C(O)[C@@H](CCC(=O)[*:2])N[*:1]; NBD = O=[N+]([O-])c1ccc(*)c2nonc12; GABA = NCCCC(=O)O

Experiments:
[1] = target: T1, MraYBS (Bacillus subtilis, UniProt Q03521); experiment: HPLC-based MraY functional assay (substrate activity); type: biochemical; conditions: for substrate under extreme reaction conditions: Park's nucleotides 10 μM, MraYBS 40 μg/mL, C55P 1 mM, 24 h; for substrate under extreme reaction conditions / conversion % / recognized as a MraYBS substrate: 37 °C; for conversion %: lipid phosphates 200 μM, NBD-Park's nucleotide (6) 10 μM, 1 h, from consumption of 6, n = 3, average ± SD; for conversion % / recognized as a MraYBS substrate: MraYBS 10 μg/mL; for recognized as a MraYBS substrate: analogue 10 μM, C55P 200 μM
T1 construct: MBP; made in house
T1 sequence (Q03521 1-324): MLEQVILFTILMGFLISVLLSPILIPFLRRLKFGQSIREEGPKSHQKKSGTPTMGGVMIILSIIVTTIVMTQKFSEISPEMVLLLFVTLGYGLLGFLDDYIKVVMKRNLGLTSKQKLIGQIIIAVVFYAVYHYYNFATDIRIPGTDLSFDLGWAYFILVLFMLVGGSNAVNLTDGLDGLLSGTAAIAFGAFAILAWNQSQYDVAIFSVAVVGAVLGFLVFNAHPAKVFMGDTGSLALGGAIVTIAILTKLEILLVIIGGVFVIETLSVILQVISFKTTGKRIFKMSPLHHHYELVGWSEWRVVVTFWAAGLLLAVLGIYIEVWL
Protocol: The purified MraY from Bacillus subtilis was prepared as described in our previous reports. […] […] The reaction mixtures were added by uridine (0.01 mg/mL) as the internal standard and heated to 100 °C to stop the transferring reaction. The samples were analyzed by RP-C18 HPLC with gradient elution of 0.25 M NH4HCO3(aq)/15% MeOH in water (100:0 to 0:100) at a flow rate of 1 mL/min over 45 min, and the peaks of substrates were monitored at UV 260 nm. For 6 and 11–17, the reaction mixture containing MraYBS (10 μg/mL), C55P (200 μM), 6-(7-Nitro-2,1,3-benzoxadiazol-4-ylamino)hexanoic acid (5 μM, internal standard) in 10 μL reaction buffer (30 mM Tris, 10 mM MgCl2, 10 mM NaCl, 0.1 mM Tween-20, 2.5% DMSO, pH 8.0) were pre-incubated at 37 °C for 15 min. […] The reaction mixtures were heated to 100 °C to stop the transferring reaction, and samples were analyzed by an anion-exchange column (SAX1, Supelco Co., 5 μm, 4.6 × 250 mm) with a linear gradient elution of NH4OAc (20 mM to 1 M in MeOH) at a flow rate of 1.0 mL/min over 30 min. The fluorescent substrates were monitored with λex 466 nm/λem 535 nm by fluorescence detector.

[2] = target: T1, MraYBS; experiment: Biolayer interferometry-based (BLI) binding assay; conditions: for binding affinity with MraYBS: concentrations up to 500 μM
Protocol: MraYBS binding was measured in a biolayer interferometry-based binding assay on Octet Red96® instrument (ForteBio, Inc.). The biotinylation of MraYBS was performed with using EZ-Link® Sulfo-NHS-LC-LC-Biotin Kit (Thermo Fisher Scientific, Inc.). In general, MraYBS (1.7 mg/mL) in 50 μL reaction buffer (0.01 M HEPES pH 7.4, 0.15 M NaCl, 0.005% v/v Surfactant P20), was added by the sulfo-NHS-LC-LC-biotin reagent (1 mM, 1 μL). After incubating for 30 minutes at room temperature, the biotinylated-MraYBS was purified by a Zeba^TM Spin Desalting Columns, 7K MWCO (Thermo Fisher Scientific, Inc.), and the buffer was changed to the binding buffer (30 mM Tris, 10 mM MgCl2, 10 mM NaCl, 0.1 mM Tween-20, pH 8.0) during the purification. Comparing to the non-biotinylated-MraYBS, the biotinylated-MraYBS remains 62% activity measured by the HPLC-based MraY functional assay in 1 h reaction. The biotinylated MraYBS was then immobilized to Super Streptavidin (SSA) Octet tips (ForteBio, Inc.) for reaching a fixed signal of 3 nm. Before the assay starting, the MraYBS-labeled SSA sensors were pre-soaked in binding buffer for 30 min. The association of Park’s analogues with MraYBS were measured by incubating MraYBS-labeled SSA sensors in binding buffer containing various concentrations of samples in Octet Red system. The dissociation was monitored by moving the ligand biosenors from the analyte solution to binding buffer. The dissociation constants (KD) were obtained by nonlinear regression analysis using the specific binding model with the GraphPad Prism program (GraphPad Software, San Diego, CA).

[3] = target: T1, MraYBS; experiment: MraY fluorescence enhancement assay (kinetics, inhibition); type: biochemical; conditions: for Inhibition Mode: Lineweaver-Burk
Protocol: Determine kinetic parameters by MraY fluorescence enhancement assay. The fluorescence enhancement assay was performed in 384-well plate as described by Bugg et al. with slight modifications.5 The reaction mixture containing MraYBS (10 μg/mL), C55P (200 μM) in 30 μL reaction buffer (30 mM Tris, 10 mM MgCl2, 10 mM NaCl, 0.1 mM Tween-20, 2.5% DMSO, pH 8.0) were pre-incubated at 37 °C for 15 min. The reactions were initiated by the addition of various concentrations of NBD-Park’s nucleotide 6 (0 to 160 μM). For inhibition study, a various concentrations of inhibitors were added before the addition of substrate 6. The continuous fluorescence increase over 60 min was monitored with λex 466 nm/λem 535 nm by fluorescence microplate reader (SpectraMax M5, Molecular Devices, LLC) at 37 °C. Linear regressions of increased fluorescent units (FLU) versus time (min) were used to calculate the initial velocities for each reaction. The kinetic parameters values (Ki, KM, and Vmax) were obtained by nonlinear regression analysis using the […] equation with the GraphPad Prism program (GraphPad Software, San

## CC(=O)N[C@H]1[C@@H](OP(=O)(O)OP(=O)(O)OC[C@H]2O[C@@H](n3cc(N)c(=O)[nH]c3=O)[C@H](O)[C@@H]2O)O[C@H](CO)[C@@H](O)[C@@H]1O[C@H](C)C(=O)N[C@@H](C)C(=O)N[C@H](CCC(=O)N[C@@H](CCCCNc1ccc([N+](=O)[O-])c2nonc12)C(=O)N[C@H](C)C(=O)N[C@H](C)C(=O)O)C(=O)O [Compound 17]
[1]
  substrate under extreme reaction conditions: did not function as substrates; also recorded: not be a substrate

## CC(=O)N[C@H]1[C@@H](OP(=O)(O)OP(=O)(O)OC[C@H]2O[C@@H](n3ccc(=O)[nH]c3=O)[C@H](O)[C@@H]2O)O[C@H](CO)[C@@H](O)[C@@H]1O[C@H](C)C(=O)N[C@@H](C)C(=O)N[C@H](CCC(=O)N[C@@H](CCCCN)C(=O)O)C(=O)O [Compound 7]
[1]; after 1 h reaction
  activity reduced compared with 5: 17%

## CC(C)=CCC/C(C)=C/CC/C(C)=C/CC/C(C)=C/CC/C(C)=C/CC/C(C)=C/CC/C(C)=C/CC/C(C)=C/CC/C(C)=C/CC/C(C)=C/CC/C(C)=C/CO [Undecaprenol, reference compound]
[1]
  conversion %: 96 ± 1%

## CC(=O)N[C@H]1[C@@H](OP(=O)(O)OP(=O)(O)OC[C@H]2O[C@@H](n3ccc(=O)[nH]c3=O)[C@H](O)[C@@H]2O)O[C@H](CO)[C@@H](O)[C@@H]1O[C@H](C)C(=O)N[C@@H](C)C(=O)O [Compound 9]
[1]
  recognized as a MraYBS substrate: not substrates
[2]
  binding affinity with MraYBS: no proper binding affinity

## CC(=O)Nc1cn([C@@H]2O[C@H](COP(=O)(O)OP(=O)(O)O[C@H]3O[C@H](CO)[C@@H](O)[C@H](O[C@H](C)C(=O)N[C@@H](C)C(=O)O)[C@H]3NC(C)=O)[C@@H](O)[C@H]2O)c(=O)[nH]c1=O [Compound 19]
[3]
  Ki: 764 ± 127 µM
[3]; 6 as substrate
  Inhibition Mode: Competitive
[2]
  Kd: 281 ± 97 µM

## CC(=O)N[C@H]1[C@@H](OP(=O)(O)OP(=O)(O)OC[C@H]2O[C@@H](n3cc(N)c(=O)[nH]c3=O)[C@H](O)[C@@H]2O)O[C@H](CO)[C@@H](O)[C@@H]1O[C@H](C)C(=O)N[C@@H](C)C(=O)O [Compound 18]
[3]; at 1 mM
  inhibitory activity: no inhibition activity

## Tunicamycins [reference compound]
[3]; 6 as substrate, C55P 200 μM, read-out: Ki
  Ki: 9 ± 1 µM
[3]; 6 as substrate
  Inhibition Mode: Competitive
[2]; BLI, without C55P, read-out: KD
  Kd: 93 ± 16 µM

## CC(C)=CCC/C(C)=C/CC/C(C)=C/CC/C(C)=C/CC/C(C)=C/CC/C(C)=C/CC/C(C)=C/CC/C(C)=C/CC/C(C)=C/CO [Solanesol, reference compound]
[1]
  conversion %: 12 ± 2%

## CC(=O)N[C@H]1[C@@H](OP(=O)(O)OP(=O)(O)OC[C@H]2O[C@@H](n3ccc(=O)[nH]c3=O)[C@H](O)[C@@H]2O)O[C@H](CO)[C@@H](O)[C@@H]1O[C@H](C)C(=O)NCC(=O)N[C@H](CCC(=O)N[C@@H](CCCCNc1ccc([N+](=O)[O-])c2nonc12)C(=O)N[C@H](C)C(=O)N[C@H](C)C(=O)O)C(=O)O [Compound 15] (UDPMurNAc-G[d(γGlu)]K(NBD)[dA][dA]-OH)
[1]; after 1 h reaction
  relative activity compared to 6: about 80%

## CC(=O)N[C@H]1[C@@H](OP(=O)(O)OP(=O)(O)OC[C@H]2O[C@@H](n3ccc(=O)[nH]c3=O)[C@H](O)[C@@H]2O)O[C@H](CO)[C@@H](O)[C@@H]1O [Compound 10, UDP-GlcNAc, reference compound]
[1]
  recognized as a MraYBS substrate: not substrates

## CC(=O)N[C@H]1[C@@H](OP(=O)(O)OP(=O)(O)OC[C@H]2O[C@@H](n3ccc(=O)[nH]c3=O)[C@H](O)[C@@H]2O)O[C@H](CO)[C@@H](O)[C@@H]1O[C@H](C)C(=O)N[C@@H](C)C(=O)NCCCC(=O)N[C@@H](CCCCNc1ccc([N+](=O)[O-])c2nonc12)C(=O)N[C@H](C)C(=O)N[C@H](C)C(=O)O [Compound 16] (UDPMurNAc-A[GABA]K(NBD)[dA][dA]-OH)
[1]; after 1 h reaction
  relative activity compared to 6: < 10%
[2]
  binding affinity with MraYBS: no proper binding affinity

## CC(C)=CCCC(C)=CCCC(C)=CCCC(C)=CCO [Tetraprenol, reference compound]
[1]
  conversion %: 16 ± 5%

## CC(C)=CCC/C(C)=C/CC/C(C)=C/CC/C(C)=C/CC/C(C)=C/CC/C(C)=C/CC/C(C)=C/CO [Heptaprenol, reference compound]
[1]
  conversion %: 55 ± 3%

## CC(C)=CCC/C(C)=C/CC/C(C)=C/CC/C(C)=C/CC/C(C)=C/CC/C(C)=C/CO [Hexaprenol, reference compound]
[1]
  conversion %: 27 ± 6%

## CC(=O)N[C@H]1[C@@H](OP(=O)(O)OP(=O)(O)OC[C@H]2O[C@@H](n3ccc(=O)[nH]c3=O)[C@H](O)[C@@H]2O)O[C@H](CO)[C@@H](O)[C@@H]1O[C@H](C)C(=O)N[C@@H](C)C(=O)N[C@H](CCC(=O)N[C@@H](CCCCN)C(=O)N[C@H](C)C(=O)N[C@H](C)C(=O)O)C(=O)O [Compound 5, Park’s nucleotide]
[1]; C55P (200 μM) as polyprenyl phosphate substrate, substrate 10 μM, within 1 h (60 min)
  substrate consumption: completely consumed
[2]
  Kd: 120 µM

## CC(=O)N[C@H]1[C@@H](OP(=O)(O)OP(=O)(O)OC[C@H]2O[C@@H](n3ccc(=O)[nH]c3=O)[C@H](O)[C@@H]2O)O[C@H](CO)[C@H](O)[C@@H]1O[C@H](C)C(=O)N[C@@H](C)C(=O)N[C@H](CCC(=O)N[C@@H](CCCCNc1ccc([N+](=O)[O-])c2nonc12)C(=O)N[C@H](C)C(=O)N[C@H](C)C(=O)O)C(=O)O [Compound 11]
[1]
  substrate under extreme reaction conditions: did not function as substrates; also recorded: not be a substrate

## CC(=O)N[C@H]1[C@@H](OP(=O)(O)OP(=O)(O)OC[C@H]2O[C@@H](n3ccc(=O)[nH]c3=O)[C@H](O)[C@@H]2O)O[C@H](CO)[C@@H](O)[C@@H]1O[C@H](C)C(=O)N[C@@H](C)C(=O)N[C@H](CCC(=O)O)C(=O)O [Compound 8]
[1]; after 1 h reaction, compared with 5
  substrate activity remained: 40%

## CC(=O)N[C@H]1[C@@H](OP(=O)(O)OP(=O)(O)OC[C@H]2O[C@@H](n3cc(NC(=O)Cc4ccc(C)cc4)c(=O)[nH]c3=O)[C@H](O)[C@@H]2O)O[C@H](CO)[C@H](O)[C@@H]1O[C@H](C)C(=O)N[C@@H](C)C(=O)O [Compound 21]
[3]
  inhibition at 1000 µM: 30%
[2]; BLI, without C55P
  Kd: > 250 µM
[2]; concentration up to 250 μM
  binding interactions with MraYBS: no sufficient binding interactions
